The nature of data set [1]: Assessment of hydrolysis rate under spray drying feed conditions (pH 8.0 buffer/limonene emulsion). In kind it is physicochemical. As to conditions: pH 8.0 phosphate buffer; for t50 at pH 8.0: precursor dissolved in limonene, emulsion, time to 50% of maximum absorbance. The method, then:
Acetaldehyde precursors suitable for rendering into dry powders must avoid releasing significant levels of acetaldehyde during various stages of processing. In particular they should resist hydrolysis during the preparation of a spray drying feed emulsion, which can be neutral to basic pH and can contain a significant volume fraction of an oil phase.
A pH 8.0 buffer solution was prepared by adding 49.92 g disodium phosphate heptahydrate (CAS 7782-85-6) and 1.93 g monosodium phosphate (CAS 7558-80-7) to 1 L of deionised water. Aliquots of 0.20 g the Example 1-2 preparations were dissolved in 0.8 g of limonene (CAS 5989-25-7) added to 10 g of the buffer solution within a 30 mL Erlenmeyer flask containing a stir bar. The concentration of acetaldehyde in solution was monitored as a function of time using a UV/V is spectrometer probe measuring absorbance at 276 nm. Stirring was periodically stopped to allow oil droplets to rise to the surface and collect an unobscured absorbance reading of the aqueous solution. Release followed mixed zero and first order kinetics. t50 (the time to 50% of the maximum absorbance) values are reported in Table 2. […] Comparative Sample 1 has t50 of 2.1 minutes, which is so short that a person skilled in the art would consider this compound at risk of experiencing a problematic degree of hydrolysis during processing. Example 1 has a much longer t50 value and released acetaldehyde more slowly than Comparative Sample 1.

The nature of data set [2]: Assessment of hydrolysis rate at pH 3.0 (acetaldehyde release, UV absorbance at 276 nm). In kind it is physicochemical. The following applies: pH 3.0 buffer. The method, then: Instant beverage applications require rapid hydrolysis of the precursor molecules in order to rapidly release acetaldehyde. Because such beverages might be consumed immediately upon preparation, it is desired for the release to be as rapid as possible.
A pH 3.0 buffer solution was prepared by adding 16.43 g citric acid (CAS 77-92-9) and 4.26 g disodium citrate (CAS 144-33-2) to 1 L of deionized water. Aliquots of the Example 1-2 preparations were added to the buffer solution within a Distek 2100B USP 2 dissolution system stirring at 200 rpm. The concentration of acetaldehyde in solution was monitored as a function of time using a UV/V is spectrometer probe which measured absorbance at 276 nm every 1 second. Results for comparative samples were taken from work by Gassenmeier et al..

Take `CCOC(C)OC(C)=O` (centres unmarked) [Comparative Sample 1, 1-ethoxyethyl acetate, reference compound]: in data set [1] (limonene emulsion), the t50 amounted to 2.1 min. Further, the “t50 at pH 8.0” value in data set [1] came out at 2.1 min.

In the case of `C=CC1(C)CCC(C(C)(C)OC(C)OCC)O1` (centres unmarked) [Example 1, 5-(2-(1-ethoxyethoxy)propan-2-yl)-2-methyl-2-vinyltetrahydrofuran], the “Increase in absorbance at 276 nm (release of acetaldehyde)” value in data set [1] (limonene emulsion, over 1 hour) was “no measurable increase in absorbance over 1 hour”. For the same compound, the “t50 at pH 8.0” value in data set [1] is on record as >>1 hour. The “Rate of acetaldehyde release compared with comparative samples” value in data set [2] is listed as “released acetaldehyde faster than Comparative Samples 2-5”.

The record behind these values is US10575543B2, “Acetaldehyde precursors” (Firmenich SA, priority 2014, dated 2020).
